# Like-named read-outs stand apart in the source and are kept apart here.
# Tests used:
# [1] = dog, in vivo; cited from earlier work
# [2] = tested on: porcine transplantation model of lung IRI; assay: Porcine left lung transplant model of lung IRI; format: in vivo, swine; settings: for left lung-specific PaO2/FiO2 ratio: 1 mg/kg i.v., mean±SD
# Description: The University of Virginia's Animal Care and Use Committee approved this study, protocol 4262 (approved 10/23/2021). All procedures were performed in compliance with the National Institutes of Health 1996 Guide for the Care and Use of Laboratory Animals. Ten farm-raised, domestic swine of both sexes (31.6-60.0 kg weight range) were utilized. Animals were randomized to one of two groups (n=5/group). […] GSK219 or vehicle was administered as a systemic, intravenous infusion (100 ml volume over a 30-min period via central venous line placed in the left external jugular vein) beginning after the recipient animal's left pulmonary artery (PA) was clamped (i.e. at the time of recipient lung explant; approximately 40 min prior to initiation of graft reperfusion). All infusions were completed prior to reperfusion of the implanted lung.
# A porcine left lung transplant model was utilized as previously described by our laboratory^18, with modifications as described here. On day 1, the donor animal was sedated and intubated. General anesthesia was maintained while animals were ventilated with 100% oxygen to measure baseline parameters. Lungs were ventilated to a tidal volume of 8.0 mL/kg with a respiratory rate of 22 breaths/min and a positive end-expiratory pressure of 5.0 cm H2O. Intravenous heparin (200 IU/kg, APP Pharmaceuticals, Schaumburg, IL) was administered.
# Donor animals underwent a median sternotomy and pericardiotomy to expose the heart, great vessels, and lungs. Prostaglandin E1 ([…], Pfizer, New York, NY) was injected into the main PA. […] The lungs were then flushed with 1 L room temperature heparinized Perfadex (XVIVO Perfusion. Inc, Englewood, CO; 10,000 IU heparin per liter) via the cardioplegia cannula. At this point the lungs underwent 30 min of warm ischemia. At the conclusion of warm ischemia, the thoracic cavity was filled with cold (4° C.) slush, and lungs were flushed with an additional 1 L cold Perfadex via the main PA. At mid-inspiration, the trachea was clamped, and the heart-lung bloc was explanted. The lungs were then flushed retrograde with an additional IL cold Perfadex and placed in 4° C. cold storage for 24 hrs.
# On day 2, recipient animals were anesthetized and ventilated as above for donor animals. A left thoracotomy was performed. and the left lung hilum was exposed. Central arterial and venous access was obtained for monitoring. Left pneumonectomy and left lung transplantation were performed as previously described.^18 Lung function was monitored during 4 hours of reperfusion while the left thoracotomy remained open. Combined (left and right) lung compliance was monitored throughout reperfusion. Airway pressure measurements and partial pressure of arterial oxygen (PaO2; systemic arterial as well as direct left pulmonary vein samples for graft-specific oxygenation) were obtained after 15 minutes, 1 hour and hourly thereafter. […] PaO2, PaCO2, and pH were measured using an i-STAT handheld blood analyzer (Abbott Point of Care, Princeton, NJ). After 4 hours of reperfusion, the animal was euthanized, and the heart-lung bloc was excised.
# After completion of reperfusion, small peripheral samples of the transplanted left lungs were tied off, and fresh tissue samples were collected from the left upper lobe, the left lingula, and left lower lobe. The same surgeon collected all samples from consistent, peripheral, dependent locations of each lobe in all animals. These samples were either used fresh or flash-frozen in liquid nitrogen and stored at −80° C.
# Fresh lung samples were patted dry, weighed, and dried in a vacuum oven at 56° C. until the weight stabilized (typically 3-4 days). Lung wet/dry weight ratios were then calculated to assess edema.
# After collection of fresh lung samples, the left upper lobe was lavaged using 40 ml normal saline. Total cell counts and differential cell counts in BAL fluid were performed by the University of Virginia Clinical Laboratory in a blinded fashion. […]
# [3] = rat, in vivo; cited from earlier work
# [4] = tested on: lung IRI; settings: wild-type mice pretreated, left hilar ligation model; 1 mg/kg intravenous dose; cited from earlier work
# [5] = tested on: murine primary pulmonary microvascular endothelial cells (PMVECs); assay: Proinflammatory cytokine release from murine PMVECs after hypoxia-reoxygenation; format: cell-based; settings: 6 h hypoxia + 4 h reoxygenation, AR-C 10 mM, 5 μM
# Description: We used 6 hours hypoxia followed by 4 hours normoxia/reoxygenation (HR) in murine primary pulmonary microvascular endothelial cells (PMVECs) as a surrogate model of lung IR. Control cells were exposed to 10 hours normoxia (N). PMVECs were treated with vehicle or P2Y2R inhibitor AR-C ([…], 6 hrs). The concentrations of chemokine (C—X—C motif) ligand 1 (CXCL1) and monocvte chemoattractant protein-1 (MCP-1) in the culture media was measured using a mouse keratinocyte-derived chemokine (KC)/CXCL1 Quantikine ELISA kit (R&D Systems, Minneapolis, MN) and multiplex cytokine panel assay (Bio-Rad Laboratories, Hercules, CA), respectively. KC and MCP-1 levels were increased in PMVECs exposed to HR. Treatment of PMVECs with P2Y2R inhibitor AR-C reduced the levels of KC (FIG. 13A) and MCP-1 (FIG. 13B) in the culture media.
# [6] = after 4 hours of reperfusion, vs vehicle
# [7] = after reperfusion, vs vehicle, P<0.05
# [8] = after reperfusion, vs vehicle, trended lower
smiles,measurement,setting,value
"O=C(NC1(c2ccccc2)CC1)c1c(CN2CCC(N3CCCCC3)CC2)c(-c2cccc(C(F)(F)F)c2)nc2cc(Br)ccc12 [GSK219, GSK2193874]",plasma half-life (t1/2),[1],31 h
same,adverse effects of administration,"[2]; 1 mg/kg i.v. infusion over 30 min to recipient, 4 h reperfusion",no adverse effects
same,left lung-specific PaO2/FiO2 ratio,"[2]; 3 hours of reperfusion, vehicle 85.4±17.2, P=0.026",276±57 mmHg
same,left lung-specific PaO2/FiO2 ratio,"[2]; 4 hours of reperfusion, vehicle 104±28.6, P=0.003",303±37 mmHg
same,left lung wet/dry weight ratios,[2]; [6],no significant differences
same,overall lung histology by H&E staining,[2]; [6],significantly improved
same,wet/dry weight ratios of the left lingula and left lower lobe,[2]; [6],trend lower
same,"neutrophils in BAL fluid (percent of total cells, differential cell count)","[2]; after reperfusion, vehicle 80.2±1.4%, P=0.004",61.8±4.4%
same,Ang-2 in plasma,"[2]; after reperfusion, vs vehicle",significantly reduced
same,HMGB1 in BAL fluid,"[2]; after reperfusion, vs vehicle",significantly reduced
same,ICAM-1 in plasma,"[2]; after reperfusion, vs vehicle",not significantly different
same,IL-1β in BAL fluid,"[2]; after reperfusion, vs vehicle",not significantly altered
same,IL-8 in BAL fluid,"[2]; after reperfusion, vs vehicle",significantly reduced
same,P-selectin in plasma,"[2]; after reperfusion, vs vehicle",not significantly different
same,VCAM-1 in plasma,"[2]; after reperfusion, vs vehicle",not significantly different
same,ZO-1 in plasma,"[2]; after reperfusion, vs vehicle",significantly reduced
same,ZO-2 in BAL fluid,"[2]; after reperfusion, vs vehicle",not significantly different but trended lower
same,ZO-2 in plasma,"[2]; after reperfusion, vs vehicle",but not occludin (FIG. 23A) or ZO-2 (FIG. 23D) were significantly reduced
same,claudin-5 in plasma,"[2]; after reperfusion, vs vehicle",significantly reduced
same,occludin in plasma,"[2]; after reperfusion, vs vehicle",but not occludin (FIG. 23A) or ZO-2 (FIG. 23D) were significantly reduced
same,ZO-1 in BAL fluid,[2]; [7],significantly reduced
same,claudin-5 in BAL fluid,[2]; [7],significantly reduced
same,occludin in BAL fluid,[2]; [7],significantly reduced
same,P-selectin in BAL fluid,"[2]; after reperfusion, vs vehicle, P=0.0075",significantly reduced
same,ICAM-1 in BAL fluid,[2]; [8],No significant changes
same,VCAM1 in BAL fluid,[2]; [8],No significant changes
same,"reduction of neutrophil infiltration (immunohistochemistry of lung sections, neutrophils per HPF)","[2]; compared to vehicle control, P<0.0001",70%
same,systemic arterial PaO2/FiO2 ratio,"[2]; during reperfusion, vs vehicle","improved during reperfusion in the GSK-treated group, although this was not significant"
same,histologic score for polymorphonuclear neutrophils per high-powered field (PMNs/HPF),"[2]; left lower lobe after reperfusion, vs vehicle, P=0.028",significantly improved
same,histologic composite lung injury score,"[2]; left lower lobe after reperfusion, vs vehicle, P=0.041",significantly improved
same,histologic score for alveolar edema,"[2]; left lower lobe after reperfusion, vs vehicle, P=0.048",significantly improved
same,average pulmonary venous pH,"[2]; throughout reperfusion, vehicle 7.3±0.024, no significant difference",7.3±0.020
same,average pulmonary venous PaCO2,"[2]; throughout reperfusion, vehicle 60.1±2.11, no significant difference",60.4±1.46 mmHg
same,plasma half-life (t1/2),[3],10 h
same,lung IRI,[4],significant attenuation
"Cc1ccc2c(c1)C=Cc1cc(C)ccc1C2c1cn(Cc2ccc(C(=O)Nc3nn[nH]n3)o2)c(=O)[nH]c1=S [ARC, AR-C 118925XX]",KC level in the culture media,[5],reduced
same,MCP-1 level in the culture media,[5],reduced

# From patent US20260284082A1, “TARGETING THE PANX1-P2Y2R-TRPV4 PATHWAY TO TREAT LUNG ISCHEMIA-REPERFUSION INJURY” (UNIVERSITY OF VIRGINIA PATENT FOUNDATION, priority 2023, published 2026)
